Legend:
[1] = target: Maternal embryonic leucine zipper kinase (Homo sapiens) (UniProt Q14680); conditions: Compound concentration 1000.0 nM
[2] = target: Calcium/calmodulin-dependent protein kinase type 1G (Homo sapiens) (UniProt Q96NX5); conditions: Compound concentration 1000.0 nM
[3] = target: Ribosomal protein S6 kinase alpha-1 (Homo sapiens) (UniProt Q15418); conditions: Compound concentration 1000.0 nM
[4] = system: Phosphatidylinositol 4,5-bisphosphate 3-kinase catalytic subunit alpha isoform (Homo sapiens), P42336 [C420R]; conditions: Compound concentration 1000.0 nM
[5] = target: Phosphatidylinositol 4-phosphate 3-kinase C2 domain-containing subunit beta (Homo sapiens) (UniProt O00750); conditions: Compound concentration 1000.0 nM
[6] = target: Serine/threonine-protein kinase pim-3 (Homo sapiens) (UniProt Q86V86); conditions: Compound concentration 1000.0 nM
[7] = target: Ribosomal protein S6 kinase alpha-3 (Homo sapiens) (UniProt P51812); conditions: Compound concentration 1000.0 nM
[8] = target: Receptor-type tyrosine-protein kinase FLT3 (Homo sapiens) (UniProt P36888); conditions: Compound concentration 1000.0 nM
[9] = target: NT-3 growth factor receptor (Homo sapiens) (UniProt Q16288); conditions: Compound concentration 1000.0 nM
[10] = target: Cyclin-dependent kinase 5 (Homo sapiens) (UniProt Q00535); conditions: Compound concentration 1000.0 nM
[11] = target: Serine/threonine-protein kinase MARK2 (Homo sapiens) (UniProt Q7KZI7); conditions: Compound concentration 1000.0 nM
[12] = target: Rhodopsin kinase GRK1 (Homo sapiens) (UniProt Q15835); conditions: Compound concentration 1000.0 nM
[13] = target: Serine/threonine-protein kinase BRSK1 (Homo sapiens) (UniProt Q8TDC3); conditions: Compound concentration 1000.0 nM
[14] = target: Dual specificity mitogen-activated protein kinase kinase 6 (Homo sapiens) (UniProt P52564); conditions: Compound concentration 1000.0 nM
[15] = target: Mitogen-activated protein kinase 1 (Homo sapiens) (UniProt P28482); conditions: Compound concentration 1000.0 nM
[16] = target: Dual specificity mitogen-activated protein kinase kinase 2 (Homo sapiens) (UniProt P36507); conditions: Compound concentration 1000.0 nM
[17] = target: Dual specificity mitogen-activated protein kinase kinase 7 (Homo sapiens) (UniProt O14733); conditions: Compound concentration 1000.0 nM
[18] = target: Cyclin-dependent kinase 2 homolog (Plasmodium falciparum (isolate 3D7)) (UniProt P61075); conditions: Compound concentration 1000.0 nM
[19] = target: Atypical kinase COQ8B, mitochondrial (Homo sapiens) (UniProt Q96D53); conditions: Compound concentration 1000.0 nM
[20] = target: Tyrosine-protein kinase FRK (Homo sapiens) (UniProt P42685); conditions: Compound concentration 1000.0 nM
[21] = target: Serine/threonine-protein kinase MRCK gamma (Homo sapiens) (UniProt Q6DT37); conditions: Compound concentration 1000.0 nM
[22] = target: Phosphatidylinositol 4-kinase beta (Homo sapiens) (UniProt Q9UBF8); conditions: Compound concentration 1000.0 nM
[23] = target: Activin receptor type-2A (Homo sapiens) (UniProt P27037); conditions: Compound concentration 1000.0 nM
[24] = target: High affinity nerve growth factor receptor (Homo sapiens) (UniProt P04629); conditions: Compound concentration 1000.0 nM
[25] = target: Mitogen-activated protein kinase kinase kinase kinase 5 (Homo sapiens) (UniProt Q9Y4K4); conditions: Compound concentration 1000.0 nM
[26] = system: Epidermal growth factor receptor (Homo sapiens), P00533 [UNDEFINED MUTATION]; conditions: Compound concentration 1000.0 nM
[27] = target: SRSF protein kinase 3 (Homo sapiens) (UniProt Q9UPE1); conditions: Compound concentration 1000.0 nM
[28] = target: Serine/threonine-protein kinase Nek10 (Homo sapiens) (UniProt Q6ZWH5); conditions: Compound concentration 1000.0 nM
[29] = target: Ribosomal protein S6 kinase alpha-5 (Homo sapiens) (UniProt O75582); conditions: Compound concentration 1000.0 nM
[30] = target: Dual specificity protein kinase CLK4 (Homo sapiens) (UniProt Q9HAZ1); conditions: Compound concentration 1000.0 nM
[31] = target: Alpha-2B adrenergic receptor (Homo sapiens) (UniProt P18089); conditions: Compound concentration 10.0 uM
[32] = system: Mast/stem cell growth factor receptor Kit (Homo sapiens), P10721 [V559D,T670I]; conditions: Compound concentration 1000.0 nM
[33] = target: NUAK family SNF1-like kinase 1 (Homo sapiens) (UniProt O60285); conditions: Compound concentration 1000.0 nM
[34] = system: Tyrosine-protein kinase ABL1 (Homo sapiens), P00519 [T315I]; conditions: Compound concentration 1000.0 nM
[35] = target: Serine/threonine-protein kinase N1 (Homo sapiens) (UniProt Q16512); conditions: Compound concentration 1000.0 nM
[36] = target: Dual specificity tyrosine-phosphorylation-regulated kinase 1A (Homo sapiens) (UniProt Q13627); conditions: Compound concentration 1000.0 nM
[37] = target: Serine/threonine-protein kinase MAK (Homo sapiens) (UniProt P20794); conditions: Compound concentration 1000.0 nM
[38] = target: Tyrosine-protein kinase Mer (Homo sapiens) (UniProt Q12866); conditions: Compound concentration 1000.0 nM
[39] = target: Cyclin-dependent kinase 11B (Homo sapiens) (UniProt P21127); conditions: Compound concentration 1000.0 nM
[40] = target: Receptor-type tyrosine-protein kinase FLT3 (Homo sapiens) (UniProt P36888); conditions: Compound concentration 1000.0 nM; remark: listed apart in the source
[41] = target: cAMP-dependent protein kinase catalytic subunit alpha (Homo sapiens) (UniProt P17612); conditions: Compound concentration 1000.0 nM
[42] = target: Hepatocyte growth factor receptor (Homo sapiens) (UniProt P08581); conditions: Compound concentration 1000.0 nM
[43] = target: Ephrin type-A receptor 3 (Homo sapiens) (UniProt P29320); conditions: Compound concentration 1000.0 nM
[44] = target: Epidermal growth factor receptor (Homo sapiens) (UniProt P00533); conditions: Compound concentration 1000.0 nM
[45] = target: Serine/threonine-protein kinase 25 (Homo sapiens) (UniProt O00506); conditions: Compound concentration 1000.0 nM

Chain of Receptor-type tyrosine-protein kinase FLT3 (Homo sapiens) (P36888 whole entry): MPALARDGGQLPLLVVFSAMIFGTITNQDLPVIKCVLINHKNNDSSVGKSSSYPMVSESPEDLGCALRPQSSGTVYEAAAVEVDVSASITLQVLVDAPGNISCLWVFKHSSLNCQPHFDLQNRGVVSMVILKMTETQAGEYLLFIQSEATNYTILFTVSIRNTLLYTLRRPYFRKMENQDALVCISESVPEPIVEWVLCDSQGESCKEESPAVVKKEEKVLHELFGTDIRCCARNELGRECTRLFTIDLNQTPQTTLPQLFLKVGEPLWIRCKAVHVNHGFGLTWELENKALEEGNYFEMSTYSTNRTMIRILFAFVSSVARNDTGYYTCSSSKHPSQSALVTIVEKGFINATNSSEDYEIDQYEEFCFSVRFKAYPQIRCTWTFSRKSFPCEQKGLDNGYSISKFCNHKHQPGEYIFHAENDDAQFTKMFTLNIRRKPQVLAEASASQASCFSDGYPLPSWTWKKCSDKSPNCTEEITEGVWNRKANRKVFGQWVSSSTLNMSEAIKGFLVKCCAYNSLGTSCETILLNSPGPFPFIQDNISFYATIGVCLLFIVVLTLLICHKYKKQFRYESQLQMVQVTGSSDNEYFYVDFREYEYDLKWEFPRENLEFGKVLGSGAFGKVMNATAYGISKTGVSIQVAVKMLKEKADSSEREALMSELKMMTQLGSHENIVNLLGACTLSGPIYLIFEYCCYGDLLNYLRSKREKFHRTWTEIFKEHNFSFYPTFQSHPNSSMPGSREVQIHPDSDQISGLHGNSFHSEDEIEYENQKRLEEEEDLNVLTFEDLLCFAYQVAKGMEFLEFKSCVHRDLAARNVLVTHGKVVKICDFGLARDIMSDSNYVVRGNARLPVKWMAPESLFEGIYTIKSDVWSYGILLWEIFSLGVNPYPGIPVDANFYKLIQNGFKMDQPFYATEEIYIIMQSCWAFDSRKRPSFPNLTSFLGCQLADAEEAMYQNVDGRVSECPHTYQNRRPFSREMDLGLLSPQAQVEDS
Chain of Dual specificity mitogen-activated protein kinase kinase 2 (Homo sapiens) (P36507 whole entry): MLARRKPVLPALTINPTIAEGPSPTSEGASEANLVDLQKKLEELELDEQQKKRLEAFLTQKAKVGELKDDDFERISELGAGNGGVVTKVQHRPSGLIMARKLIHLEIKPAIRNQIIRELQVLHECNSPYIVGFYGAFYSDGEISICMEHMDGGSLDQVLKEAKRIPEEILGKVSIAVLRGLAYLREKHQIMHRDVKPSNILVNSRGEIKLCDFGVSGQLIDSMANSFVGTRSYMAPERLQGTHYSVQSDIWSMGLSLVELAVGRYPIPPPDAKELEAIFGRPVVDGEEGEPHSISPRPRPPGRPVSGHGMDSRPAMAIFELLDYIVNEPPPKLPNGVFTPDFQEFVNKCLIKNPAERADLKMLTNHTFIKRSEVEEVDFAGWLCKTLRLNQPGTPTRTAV
Chain of Dual specificity mitogen-activated protein kinase kinase 6 (Homo sapiens) (P52564 whole entry): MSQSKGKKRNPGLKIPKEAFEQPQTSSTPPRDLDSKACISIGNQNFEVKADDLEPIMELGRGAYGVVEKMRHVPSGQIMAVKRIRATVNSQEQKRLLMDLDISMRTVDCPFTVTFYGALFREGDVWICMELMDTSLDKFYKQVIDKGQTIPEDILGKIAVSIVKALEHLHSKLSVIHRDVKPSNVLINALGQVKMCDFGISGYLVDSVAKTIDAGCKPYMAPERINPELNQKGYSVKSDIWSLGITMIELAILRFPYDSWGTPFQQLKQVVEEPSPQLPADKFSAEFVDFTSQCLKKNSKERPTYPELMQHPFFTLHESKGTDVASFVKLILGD
Chain of Tyrosine-protein kinase Mer (Homo sapiens) (Q12866 whole entry): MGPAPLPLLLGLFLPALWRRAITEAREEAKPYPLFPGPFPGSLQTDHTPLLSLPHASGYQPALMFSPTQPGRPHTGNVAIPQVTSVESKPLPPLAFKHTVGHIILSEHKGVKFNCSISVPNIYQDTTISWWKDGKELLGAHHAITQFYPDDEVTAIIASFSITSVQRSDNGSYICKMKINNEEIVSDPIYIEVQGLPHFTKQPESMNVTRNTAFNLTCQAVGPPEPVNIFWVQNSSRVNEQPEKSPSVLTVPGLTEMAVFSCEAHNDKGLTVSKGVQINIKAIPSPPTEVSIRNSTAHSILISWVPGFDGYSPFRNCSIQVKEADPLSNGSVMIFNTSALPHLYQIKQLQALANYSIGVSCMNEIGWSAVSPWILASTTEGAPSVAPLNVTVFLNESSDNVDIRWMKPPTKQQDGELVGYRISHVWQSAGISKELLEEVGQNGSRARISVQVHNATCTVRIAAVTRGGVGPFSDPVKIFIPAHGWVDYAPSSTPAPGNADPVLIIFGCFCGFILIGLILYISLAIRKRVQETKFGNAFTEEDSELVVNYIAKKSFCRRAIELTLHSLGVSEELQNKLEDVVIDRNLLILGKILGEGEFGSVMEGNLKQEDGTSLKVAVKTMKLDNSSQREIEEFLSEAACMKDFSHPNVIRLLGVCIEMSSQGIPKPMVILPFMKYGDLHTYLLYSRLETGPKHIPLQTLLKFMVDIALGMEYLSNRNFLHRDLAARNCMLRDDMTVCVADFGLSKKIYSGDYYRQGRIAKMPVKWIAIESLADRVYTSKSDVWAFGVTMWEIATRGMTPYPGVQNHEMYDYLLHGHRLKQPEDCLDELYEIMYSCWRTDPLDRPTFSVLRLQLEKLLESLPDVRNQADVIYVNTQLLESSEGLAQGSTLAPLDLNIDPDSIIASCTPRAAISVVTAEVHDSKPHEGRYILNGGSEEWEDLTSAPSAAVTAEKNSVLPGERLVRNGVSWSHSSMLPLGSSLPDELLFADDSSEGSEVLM
Chain of Dual specificity protein kinase CLK4 (Homo sapiens) (Q9HAZ1 whole entry, looked up): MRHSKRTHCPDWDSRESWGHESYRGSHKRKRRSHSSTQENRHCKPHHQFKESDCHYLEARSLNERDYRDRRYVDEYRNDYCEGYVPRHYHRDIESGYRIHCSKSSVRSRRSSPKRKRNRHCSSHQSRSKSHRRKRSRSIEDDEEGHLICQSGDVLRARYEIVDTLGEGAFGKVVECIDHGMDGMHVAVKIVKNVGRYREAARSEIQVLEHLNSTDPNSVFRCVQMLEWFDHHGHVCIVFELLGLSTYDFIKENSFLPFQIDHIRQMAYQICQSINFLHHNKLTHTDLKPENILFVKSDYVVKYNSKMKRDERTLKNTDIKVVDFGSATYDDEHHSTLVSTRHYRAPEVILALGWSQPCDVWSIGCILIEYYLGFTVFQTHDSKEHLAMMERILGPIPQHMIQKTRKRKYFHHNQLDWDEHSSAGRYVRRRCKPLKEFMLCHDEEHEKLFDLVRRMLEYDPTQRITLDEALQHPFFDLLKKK
Chain of Phosphatidylinositol 4-kinase beta (Homo sapiens) (Q9UBF8 2-816 limits assumed): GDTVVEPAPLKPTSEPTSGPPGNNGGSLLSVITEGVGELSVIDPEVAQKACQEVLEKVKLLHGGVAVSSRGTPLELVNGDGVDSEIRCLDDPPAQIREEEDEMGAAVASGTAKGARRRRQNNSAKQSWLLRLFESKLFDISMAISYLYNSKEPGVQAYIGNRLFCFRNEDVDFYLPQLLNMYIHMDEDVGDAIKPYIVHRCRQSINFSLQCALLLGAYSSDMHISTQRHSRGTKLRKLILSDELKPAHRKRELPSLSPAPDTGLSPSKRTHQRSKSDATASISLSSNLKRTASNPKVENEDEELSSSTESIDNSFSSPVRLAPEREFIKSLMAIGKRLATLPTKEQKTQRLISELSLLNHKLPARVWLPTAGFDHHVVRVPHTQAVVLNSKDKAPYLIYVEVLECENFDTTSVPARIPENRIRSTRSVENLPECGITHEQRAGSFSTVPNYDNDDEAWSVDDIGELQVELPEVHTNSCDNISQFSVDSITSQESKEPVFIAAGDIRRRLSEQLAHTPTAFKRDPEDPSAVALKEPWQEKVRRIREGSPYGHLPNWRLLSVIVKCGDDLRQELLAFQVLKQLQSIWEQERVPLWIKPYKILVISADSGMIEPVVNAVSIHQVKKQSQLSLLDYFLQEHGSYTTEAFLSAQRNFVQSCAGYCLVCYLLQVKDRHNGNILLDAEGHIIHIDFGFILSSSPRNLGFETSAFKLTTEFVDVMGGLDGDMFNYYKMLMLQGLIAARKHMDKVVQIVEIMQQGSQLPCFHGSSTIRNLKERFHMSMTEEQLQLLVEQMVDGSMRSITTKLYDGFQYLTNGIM
Chain of Atypical kinase COQ8B, mitochondrial (Homo sapiens) (Q96D53 whole entry): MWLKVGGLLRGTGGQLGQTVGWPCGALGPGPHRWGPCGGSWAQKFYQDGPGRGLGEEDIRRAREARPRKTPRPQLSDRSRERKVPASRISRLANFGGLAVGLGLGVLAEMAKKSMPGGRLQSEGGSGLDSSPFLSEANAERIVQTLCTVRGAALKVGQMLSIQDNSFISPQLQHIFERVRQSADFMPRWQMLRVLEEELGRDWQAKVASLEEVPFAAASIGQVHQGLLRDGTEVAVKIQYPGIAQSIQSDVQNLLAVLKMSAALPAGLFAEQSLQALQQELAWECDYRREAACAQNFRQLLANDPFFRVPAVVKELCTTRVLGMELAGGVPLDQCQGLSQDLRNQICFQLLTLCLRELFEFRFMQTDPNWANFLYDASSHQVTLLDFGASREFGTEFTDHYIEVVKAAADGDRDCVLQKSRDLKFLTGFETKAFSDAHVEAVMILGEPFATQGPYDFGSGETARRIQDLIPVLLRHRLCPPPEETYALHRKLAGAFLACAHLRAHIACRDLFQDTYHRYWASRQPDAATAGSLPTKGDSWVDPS

## CCCCN(CCCC)C(=O)CN1C[C@@H](c2cc(OC)c3c(c2)OCO3)[C@H](C(=O)O)[C@H]1CC(C)(C)CCC [A-545]
[1]
  residual activity: 100%
[2]
  residual activity: 100%
[3]
  residual activity: 91.3%
[4]
  residual activity: 99.4%
[5]
  residual activity: 73.6%
[6]
  residual activity: 81.5%
[7]
  residual activity: 85.4%
[8]
  residual activity: 97.4%
[9]
  residual activity: 87.6%
[10]
  residual activity: 97.7%
[11]
  residual activity: 100%
[12]
  residual activity: 100%
[13]
  residual activity: 88.9%
[14]
  residual activity: 90.8%
[15]
  residual activity: 82.1%
[16]
  residual activity: 98%
[17]
  residual activity: 88.6%
[18]
  residual activity: 95.9%
[19]
  residual activity: 80.2%
[20]
  residual activity: 100%
[21]
  residual activity: 94.4%
[22]
  residual activity: 97.6%
[23]
  residual activity: 85.1%
[24]
  residual activity: 86.7%
[25]
  residual activity: 100%
[26]
  residual activity: 70.3%
[27]
  residual activity: 100%
[28]
  residual activity: 100%
[29]
  residual activity: 98.5%
[30]
  residual activity: 72.4%
[31]
  inhibition: 50%
[32]
  residual activity: 79%
[33]
  residual activity: 82.4%
[34]
  residual activity: 89.2%
[35]
  residual activity: 85%
[36]
  residual activity: 96.3%
[37]
  residual activity: 100%
[38]
  residual activity: 100%
[39]
  residual activity: 100%
[40]
  residual activity: 91.9%
[41]
  residual activity: 81.9%
[42]
  residual activity: 100%
[43]
  residual activity: 95.3%
[44]
  residual activity: 100%
[45]
  residual activity: 88.1%

## CCCCN(CCCC)C(=O)CN1C[C@H](c2cc(OC)c3c(c2)OCO3)[C@@H](C(=O)O)[C@@H]1CC(C)(C)CCC [ABT-546]
[1]
  residual activity: 100%
[2]
  residual activity: 100%
[3]
  residual activity: 97.7%
[4]
  residual activity: 100%
[5]
  residual activity: 65.9%
[6]
  residual activity: 100%
[7]
  residual activity: 54.9%
[8]
  residual activity: 76%
[9]
  residual activity: 50.5%
[10]
  residual activity: 100%
[11]
  residual activity: 100%
[12]
  residual activity: 71.9%
[13]
  residual activity: 100%
[14]
  residual activity: 100%
[15]
  residual activity: 100%
[16]
  residual activity: 69.7%
[17]
  residual activity: 90.8%
[18]
  residual activity: 72.2%
[19]
  residual activity: 0%
[20]
  residual activity: 100%
[21]
  residual activity: 100%
[22]
  residual activity: 80.5%
[23]
  residual activity: 97.4%
[24]
  residual activity: 61.2%
[25]
  residual activity: 100%
[26]
  residual activity: 100%
[27]
  residual activity: 100%
[28]
  residual activity: 57.4%
[29]
  residual activity: 100%
[30]
  residual activity: 100%
[31]
  inhibition: 9.73%
[32]
  residual activity: 100%
[33]
  residual activity: 100%
[34]
  residual activity: 80.7%
[35]
  residual activity: 100%
[36]
  residual activity: 73.1%
[37]
  residual activity: 100%
[38]
  residual activity: 100%
[39]
  residual activity: 86.4%
[40]
  residual activity: 100%
[41]
  residual activity: 100%
[42]
  residual activity: 100%
[43]
  residual activity: 100%
[44]
  residual activity: 95.1%
[45]
  residual activity: 100%
